How the values were obtained:
Assay in all cases: Kinase selectivity, scanMAX Kinase assay panel (DiscoverX), % control at 1 uM
Assay type in all cases: binding
[1] = molecular target: T1, scanMAX Kinase assay panel (Homo sapiens, UniProt Q9BWU1); conditions: CDK11; 1 uM; read-out: Percent Control (%)
T1 construct: purchased DiscoverX
Procedure, shortened: (§1)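 1 uM cpd (DMSO) per kinase; % ctrl = [cpd − pos ctrl]/[neg ctrl − pos ctrl] × 100; hit if <35.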

[2] = molecular target: T2, scanMAX Kinase assay panel (Homo sapiens, UniProt Q8NG66); conditions: NEK11; 1 uM; read-out: Percent Control (%)
T2 construct: purchased DiscoverX
T2 sequence (Q8NG66 1-645): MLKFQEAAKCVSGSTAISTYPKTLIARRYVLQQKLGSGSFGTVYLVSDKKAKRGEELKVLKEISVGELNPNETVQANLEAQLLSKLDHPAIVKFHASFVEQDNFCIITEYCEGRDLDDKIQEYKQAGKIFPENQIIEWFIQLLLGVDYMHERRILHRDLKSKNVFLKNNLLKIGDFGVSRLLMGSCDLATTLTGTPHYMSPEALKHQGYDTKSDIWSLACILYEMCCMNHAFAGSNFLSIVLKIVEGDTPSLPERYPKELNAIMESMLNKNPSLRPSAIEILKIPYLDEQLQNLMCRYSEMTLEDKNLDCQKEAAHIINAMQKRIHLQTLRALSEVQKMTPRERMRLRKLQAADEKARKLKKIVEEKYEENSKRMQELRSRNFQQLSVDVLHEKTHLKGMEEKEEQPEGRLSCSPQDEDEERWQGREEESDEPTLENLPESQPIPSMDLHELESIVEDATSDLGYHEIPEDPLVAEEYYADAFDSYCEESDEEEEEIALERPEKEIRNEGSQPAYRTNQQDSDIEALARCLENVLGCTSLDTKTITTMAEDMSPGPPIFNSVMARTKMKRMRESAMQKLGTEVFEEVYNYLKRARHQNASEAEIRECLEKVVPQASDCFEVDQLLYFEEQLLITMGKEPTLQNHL
Procedure, shortened: as §1

[3] = molecular target: T3, scanMAX Kinase assay panel (Homo sapiens, UniProt P06213); conditions: INSR; 1 uM; read-out: Percent Control (%)
T3 construct: purchased DiscoverX
Procedure, shortened: as §1

[4] = molecular target: T4, scanMAX Kinase assay panel (Homo sapiens, UniProt Q13976); conditions: PRKG1; 1 uM; read-out: Percent Control (%)
T4 construct: purchased DiscoverX
T4 sequence (Q13976 1-671): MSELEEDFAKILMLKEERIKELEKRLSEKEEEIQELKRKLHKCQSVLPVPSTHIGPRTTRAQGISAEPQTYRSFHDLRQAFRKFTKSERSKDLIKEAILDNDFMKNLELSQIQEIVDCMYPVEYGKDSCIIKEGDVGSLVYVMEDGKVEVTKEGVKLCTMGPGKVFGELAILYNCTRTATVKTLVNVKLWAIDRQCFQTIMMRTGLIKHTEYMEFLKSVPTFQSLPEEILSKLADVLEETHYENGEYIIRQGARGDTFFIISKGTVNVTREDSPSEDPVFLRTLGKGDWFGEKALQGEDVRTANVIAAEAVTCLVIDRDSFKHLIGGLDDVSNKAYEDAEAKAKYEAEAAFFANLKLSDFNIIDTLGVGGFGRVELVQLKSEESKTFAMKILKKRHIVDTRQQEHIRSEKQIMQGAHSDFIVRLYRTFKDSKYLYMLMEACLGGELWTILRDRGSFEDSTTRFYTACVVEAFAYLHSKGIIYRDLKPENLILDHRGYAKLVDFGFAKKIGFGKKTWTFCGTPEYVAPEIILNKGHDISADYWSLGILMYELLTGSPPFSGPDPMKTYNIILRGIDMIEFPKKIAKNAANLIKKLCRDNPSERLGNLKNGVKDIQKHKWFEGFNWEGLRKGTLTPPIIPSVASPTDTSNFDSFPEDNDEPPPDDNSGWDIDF
Procedure, shortened: as §1

[5] = molecular target: T5, scanMAX Kinase assay panel (Homo sapiens, UniProt P35590); conditions: TIE1; 1 uM; read-out: Percent Control (%)
T5 construct: purchased DiscoverX
Procedure, shortened: as §1

[6] = molecular target: T6, scanMAX Kinase assay panel (Homo sapiens, UniProt Q6PHR2); conditions: ULK3; 1 uM; read-out: Percent Control (%)
T6 construct: purchased DiscoverX
T6 sequence (Q6PHR2 1-472): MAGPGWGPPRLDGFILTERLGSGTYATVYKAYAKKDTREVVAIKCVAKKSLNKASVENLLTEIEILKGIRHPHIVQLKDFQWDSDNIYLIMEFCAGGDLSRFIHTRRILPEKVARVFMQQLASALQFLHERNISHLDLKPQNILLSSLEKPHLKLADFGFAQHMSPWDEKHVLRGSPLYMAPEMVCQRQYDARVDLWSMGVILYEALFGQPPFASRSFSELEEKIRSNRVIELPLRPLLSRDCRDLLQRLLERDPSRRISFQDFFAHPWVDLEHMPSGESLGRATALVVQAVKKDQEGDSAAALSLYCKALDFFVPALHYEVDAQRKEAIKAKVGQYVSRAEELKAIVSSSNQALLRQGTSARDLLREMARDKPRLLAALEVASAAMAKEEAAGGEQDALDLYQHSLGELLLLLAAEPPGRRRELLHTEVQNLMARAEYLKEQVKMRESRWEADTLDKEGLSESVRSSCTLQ
Procedure, shortened: as §1

T3 sequence (P06213 28-1382): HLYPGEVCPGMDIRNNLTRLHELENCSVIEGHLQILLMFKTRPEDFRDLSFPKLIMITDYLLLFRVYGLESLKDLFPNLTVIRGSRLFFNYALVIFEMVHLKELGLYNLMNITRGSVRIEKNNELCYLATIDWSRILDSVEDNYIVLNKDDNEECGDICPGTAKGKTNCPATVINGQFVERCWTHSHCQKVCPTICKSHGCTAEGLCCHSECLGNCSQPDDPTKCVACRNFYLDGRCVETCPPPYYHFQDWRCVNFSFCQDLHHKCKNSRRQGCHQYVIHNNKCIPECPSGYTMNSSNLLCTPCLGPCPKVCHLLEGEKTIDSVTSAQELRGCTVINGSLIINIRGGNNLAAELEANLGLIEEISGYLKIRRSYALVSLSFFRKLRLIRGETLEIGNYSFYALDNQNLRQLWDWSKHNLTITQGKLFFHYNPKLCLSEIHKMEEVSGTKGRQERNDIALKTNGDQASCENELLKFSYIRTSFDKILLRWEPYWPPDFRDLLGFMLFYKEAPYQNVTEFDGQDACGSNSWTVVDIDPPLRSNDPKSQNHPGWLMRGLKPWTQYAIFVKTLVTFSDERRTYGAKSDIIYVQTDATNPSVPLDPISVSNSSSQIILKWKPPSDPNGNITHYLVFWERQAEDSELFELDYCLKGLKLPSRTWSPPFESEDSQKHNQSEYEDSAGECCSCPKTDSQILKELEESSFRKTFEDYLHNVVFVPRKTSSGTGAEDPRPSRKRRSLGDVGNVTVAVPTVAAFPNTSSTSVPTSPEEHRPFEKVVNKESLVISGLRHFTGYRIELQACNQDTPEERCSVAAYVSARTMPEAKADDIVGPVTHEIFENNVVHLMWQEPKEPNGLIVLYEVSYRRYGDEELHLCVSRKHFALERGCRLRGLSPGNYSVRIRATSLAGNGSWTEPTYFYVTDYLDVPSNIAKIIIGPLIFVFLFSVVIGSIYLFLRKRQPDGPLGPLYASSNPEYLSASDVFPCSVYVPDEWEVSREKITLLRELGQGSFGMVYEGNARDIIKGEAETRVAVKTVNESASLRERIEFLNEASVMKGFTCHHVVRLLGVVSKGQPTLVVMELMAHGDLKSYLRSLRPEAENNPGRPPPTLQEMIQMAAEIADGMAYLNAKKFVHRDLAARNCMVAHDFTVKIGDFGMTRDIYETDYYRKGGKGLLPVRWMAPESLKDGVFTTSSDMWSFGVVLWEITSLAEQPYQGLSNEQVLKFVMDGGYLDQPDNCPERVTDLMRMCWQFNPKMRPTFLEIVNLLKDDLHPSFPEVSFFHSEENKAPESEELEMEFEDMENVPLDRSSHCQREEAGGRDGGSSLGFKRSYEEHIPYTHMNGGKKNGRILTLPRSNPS
T5 sequence (P35590 22-1138): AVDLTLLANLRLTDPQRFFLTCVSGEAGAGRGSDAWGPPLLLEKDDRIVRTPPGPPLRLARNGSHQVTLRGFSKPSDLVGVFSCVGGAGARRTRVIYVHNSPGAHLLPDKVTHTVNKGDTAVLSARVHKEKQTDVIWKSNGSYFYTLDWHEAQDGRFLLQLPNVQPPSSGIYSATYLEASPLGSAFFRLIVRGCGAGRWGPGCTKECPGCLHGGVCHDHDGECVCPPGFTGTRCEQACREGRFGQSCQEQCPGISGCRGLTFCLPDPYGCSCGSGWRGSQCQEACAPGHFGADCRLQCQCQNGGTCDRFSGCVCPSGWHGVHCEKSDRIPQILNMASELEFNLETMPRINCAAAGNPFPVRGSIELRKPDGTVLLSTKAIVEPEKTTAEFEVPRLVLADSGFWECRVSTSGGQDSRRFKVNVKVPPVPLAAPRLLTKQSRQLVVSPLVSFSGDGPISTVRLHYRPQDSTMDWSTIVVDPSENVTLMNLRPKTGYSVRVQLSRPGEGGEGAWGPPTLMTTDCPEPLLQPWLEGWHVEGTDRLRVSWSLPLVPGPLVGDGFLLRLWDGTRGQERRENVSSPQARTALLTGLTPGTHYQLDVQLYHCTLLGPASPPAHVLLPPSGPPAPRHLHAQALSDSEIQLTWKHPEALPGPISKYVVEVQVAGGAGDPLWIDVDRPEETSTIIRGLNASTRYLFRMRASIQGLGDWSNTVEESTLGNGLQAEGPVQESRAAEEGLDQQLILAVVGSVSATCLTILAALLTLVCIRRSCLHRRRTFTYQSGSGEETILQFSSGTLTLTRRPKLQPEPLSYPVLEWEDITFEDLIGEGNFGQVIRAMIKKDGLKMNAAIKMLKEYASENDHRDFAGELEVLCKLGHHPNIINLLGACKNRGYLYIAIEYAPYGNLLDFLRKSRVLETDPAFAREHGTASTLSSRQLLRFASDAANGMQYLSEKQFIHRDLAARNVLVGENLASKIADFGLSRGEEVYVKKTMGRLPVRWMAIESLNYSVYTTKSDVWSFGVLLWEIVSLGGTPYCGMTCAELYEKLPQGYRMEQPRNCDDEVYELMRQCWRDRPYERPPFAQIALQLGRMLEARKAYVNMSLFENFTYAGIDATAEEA
T1 sequence (Q9BWU1 whole entry): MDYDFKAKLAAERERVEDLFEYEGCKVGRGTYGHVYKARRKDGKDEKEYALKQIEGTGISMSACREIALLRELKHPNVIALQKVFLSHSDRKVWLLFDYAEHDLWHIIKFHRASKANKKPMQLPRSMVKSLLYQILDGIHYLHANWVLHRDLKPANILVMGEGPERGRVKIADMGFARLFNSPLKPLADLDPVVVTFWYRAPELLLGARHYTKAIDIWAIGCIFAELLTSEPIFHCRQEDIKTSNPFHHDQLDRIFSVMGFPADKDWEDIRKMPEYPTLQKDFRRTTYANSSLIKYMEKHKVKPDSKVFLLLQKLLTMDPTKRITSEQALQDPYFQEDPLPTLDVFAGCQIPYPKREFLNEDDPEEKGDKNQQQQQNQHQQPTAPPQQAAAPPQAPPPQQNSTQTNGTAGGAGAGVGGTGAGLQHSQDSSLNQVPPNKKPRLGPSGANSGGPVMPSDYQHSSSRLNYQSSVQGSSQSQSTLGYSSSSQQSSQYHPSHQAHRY

Row | SMILES | remaining binding at 1 µM [1] [%] | remaining binding at 1 µM [2] [%] | remaining binding at 1 µM [3] [%] | remaining binding at 1 µM [4] [%] | remaining binding at 1 µM [5] [%] | remaining binding at 1 µM [6] [%]
1 | Cc1ccc(C(=O)Nc2ccc(CN3CCN(C)CC3)c(C(F)(F)F)c2)cc1C#Cc1cnc2c(Nc3cnn(C)c3)cccn12 [Example 1, 4-methyl-3-((8-((1-methyl-1H-pyrazol-4-yl)amino)imidazo[1,2-a]pyridin-3-yl)ethynyl)-N-(4-((4-methylpiperazin-1-yl)methyl)-3-(trifluoromethyl)phenyl)benzamide] | 0 | 13 | 54 | 94 | 2 | 1
2 | Cc1cn(-c2cc(NC(=O)c3ccc(C)c(C#Cc4cnc5c(Nc6cnn(C)c6)cccn45)c3)cc(C(F)(F)F)c2)cn1 [Example 12, 4-methyl-N-(3-(4-methyl-1H-imidazol-1-yl)-5-(trifluoromethyl)phenyl)-3-((8-((1-methyl-1H-pyrazol-4-yl)amino)imidazo[1,2-a]pyridin-3-yl)ethynyl)benzamide] | 19 | 100 | 99 | 86 | 26 | 91
3 | Cc1ccc(NC(=O)C2(C(=O)Nc3ccc(F)cc3)CC2)cc1C#Cc1cnc2c(Nc3cnn(C(C)C)c3)cccn12 [Example 78] | 100 | 100 | 100 | 100 | 27 | 100
